Key:
[1] = target: PRMT5/MEP50 complex (Homo sapiens, UniProt O14744); assay: Inhibition of recombinant human fetal brain FLAG-tagged PRMT5/full length human testis 6His-tagged MEP50 expressed in baculovirus infected insect Sf9 cells using human histone H4 (1 to 15 residues) as substrate preincubated for 30 mins followed by [3H]-SAM addition
[2] = Antiproliferative activity against human Z138 cells assessed as inhibition of cell viability after 5 days by Cell-Titer Glo assay; assay type: functional, cell-based; conditions: Z-138, 120 h

Chain of PRMT5/MEP50 complex (O14744 whole entry, the tested form may be a part): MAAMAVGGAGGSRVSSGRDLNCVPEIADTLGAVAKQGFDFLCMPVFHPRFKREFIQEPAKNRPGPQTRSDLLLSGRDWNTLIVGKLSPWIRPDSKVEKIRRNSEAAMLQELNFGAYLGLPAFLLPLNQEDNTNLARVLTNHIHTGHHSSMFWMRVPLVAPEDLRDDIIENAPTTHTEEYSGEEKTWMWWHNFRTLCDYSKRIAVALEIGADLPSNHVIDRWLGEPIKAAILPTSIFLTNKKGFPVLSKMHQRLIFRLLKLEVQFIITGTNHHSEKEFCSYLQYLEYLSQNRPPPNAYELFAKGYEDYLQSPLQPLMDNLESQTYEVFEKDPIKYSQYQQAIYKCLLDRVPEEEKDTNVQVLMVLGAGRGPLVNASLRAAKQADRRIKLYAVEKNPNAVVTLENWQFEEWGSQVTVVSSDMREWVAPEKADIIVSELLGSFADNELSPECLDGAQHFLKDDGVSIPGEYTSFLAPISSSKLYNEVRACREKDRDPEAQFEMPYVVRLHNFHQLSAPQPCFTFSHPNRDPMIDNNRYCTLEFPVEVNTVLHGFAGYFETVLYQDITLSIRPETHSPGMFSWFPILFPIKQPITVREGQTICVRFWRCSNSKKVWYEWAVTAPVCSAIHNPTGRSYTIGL
Chain of PRMT5/MEP50 complex (Q9BQA1 whole entry, further chain, the tested form may be a part): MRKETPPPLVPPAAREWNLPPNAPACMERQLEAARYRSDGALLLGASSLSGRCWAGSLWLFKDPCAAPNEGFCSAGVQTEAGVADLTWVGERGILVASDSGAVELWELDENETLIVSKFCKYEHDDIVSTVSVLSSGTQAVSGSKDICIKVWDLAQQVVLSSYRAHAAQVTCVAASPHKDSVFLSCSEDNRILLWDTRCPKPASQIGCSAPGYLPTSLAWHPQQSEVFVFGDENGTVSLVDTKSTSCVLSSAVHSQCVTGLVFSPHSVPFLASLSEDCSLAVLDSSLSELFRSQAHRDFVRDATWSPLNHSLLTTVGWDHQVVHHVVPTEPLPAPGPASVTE

| Structure (SMILES) | IC50 [1] [µM] | EC50 [2] [µM] |
| --- | --- | --- |
| OC(COCc1ccc(Cl)cc1)CN1CCc2ccccc2C1 (centres undefined) | 1 to 10 | – |
| OC(COc1ccc(C2CCNCC2)cc1)CN1CCc2ccccc2C1 (centres undefined) | 1 to 10 | 10 to 40 |
| OC(COC1CCCC1)CN1CCc2ccccc2C1 (centres undefined) | 1 to 10 | – |
| COc1cccc2c1CN(CC(O)COc1cccc(-c3ccc4ncn(C)c4c3)c1)CC2 (centres undefined) | 1 to 10 | – |
| CC1CN(CC(O)COc2cccc(-c3ccc4ncn(C)c4c3)c2)Cc2ccccc21 (centres undefined) | 1 to 10 | – |
| CC1Cc2ccccc2CN1CC(O)COc1cccc(-c2ccc3ncn(C)c3c2)c1 (centres undefined) | 1 to 10 | – |
| COc1cc2c(cc1OC)CN(CC(O)COc1cccc(-c3ccc4ncn(C)c4c3)c1)CC2 (centres undefined) | > 40 | – |
| OC(CNc1cc(-c2ccc3ncn(C4CNC4)c3c2)ccn1)CN1CCc2ccccc2C1 (centres undefined) | < 0.1 | – |
| Cn1cnc2ccc(-c3cccc(OCC(O)CN4CCc5ccc(Cl)cc5C4)c3)cc21 (centres undefined) | 1 to 10 | – |
| O=C(COc1cccc2cccnc12)NC[C@@H](O)CN1Cc2ccccc2C1 | 1 to 10 | – |
| COc1ccc2c(c1)CN(CC(O)COc1cccc(-c3ccc4ncn(C)c4c3)c1)CC2 (centres undefined) | 10 to 40 | – |
| OC(COCc1ccc(Cl)cc1Cl)CN1CCc2ccccc2C1 (centres undefined) | 1 to 10 | – |
| CN1CC(n2cnc3ccc(-c4ccnc(NCC(O)CN5CCc6ccccc6C5)c4)cc32)C1 (centres undefined) | < 0.1 | – |
| Cn1cnc2ccc(-c3cccc(OCC(O)CN4CCc5ccccc5C4CC(N)=O)c3)cc21 (centres undefined) | > 40 | – |
| COc1c(COCC(O)CN2CCc3ccccc3C2)ccc2ccccc12 (centres undefined) | 1 to 10 | – |
| CC(C)(C)OC(=O)N1CCC(OCC(O)CN2CCc3ccccc3C2)C1 (centres undefined) | 1 to 10 | – |
| O=S1(=O)CCN(c2ccc(OCC(O)CN3CCc4ccccc4C3)cc2)CC1 (centres undefined) | 1 to 10 | > 20 |
| O=C(NC1CCOCC1)c1cccc(NCC(O)CN2CCc3ccccc3C2)c1 (centres undefined) | 10 to 40 | – |
| CCOC(=O)CC1c2ccccc2CCN1CC(O)COc1cccc(-c2ccc3ncn(C)c3c2)c1 (centres undefined) | 1 to 10 | – |
| CN1CCCc2c(OCC(=O)NCC(O)CN3CCc4ccccc4C3)cccc21 (centres undefined) | 0.101 to 1 | – |
| CN(Cc1ccc(OCC(O)CN2CCc3ccccc3C2)cc1)C1CCCC1 (centres undefined) | 1 to 10 | > 40 |

| Structure (SMILES) | IC50 [1] [µM] | EC50 [2] [µM] |
| --- | --- | --- |
| O=C(NC[C@H](O)CN1CCc2ccccc2C1)c1cccc(NC2CCOCC2)c1 | < 0.1 | 0.101 to 1 |
| CC1c2ccccc2CCN1CC(O)COc1cccc(CNC2CCCC2)c1 (centres undefined) | 1 to 10 | – |
| CN(CC(O)CN1CCc2ccccc2C1)c1cccc(C(=O)NC2CCOCC2)c1 (centres undefined) | 10 to 40 | – |
| Cn1cnc2ccc(-c3cccc(OCC(O)CN4CCc5c(Cl)cccc5C4)c3)cc21 (centres undefined) | 1 to 10 | – |
| Cn1cnc2ccc(-c3cccc(OCC(O)CN4CCc5ccccc5C4=O)c3)cc21 (centres undefined) | > 40 | – |
| CCOC(=O)C1c2ccccc2CCN1CC(O)COc1cccc(-c2ccc3ncn(C)c3c2)c1 (centres undefined) | > 40 | – |
| Cc1cccc2c1CCN(CC(O)COc1cccc(-c3ccc4ncn(C)c4c3)c1)C2 (centres undefined) | 1 to 10 | – |
| Cn1cnc2ccc(-c3nccc(NCC(O)CN4CCc5ccccc5C4)n3)cc21 (centres undefined) | 1 to 10 | – |
| COc1ccc(Cn2cnc3ccc(-c4ccc(OCC(O)CN5Cc6ccccc6C5)cc4)cc32)cc1 (centres undefined) | 1 to 10 | – |
| OC(COC1CCN(c2ccccc2)C1)CN1CCc2ccccc2C1 (centres undefined) | 1 to 10 | – |
| C[C@@H](Oc1cccc2cccnc12)C(=O)NC[C@@H](O)CN1Cc2ccccc2C1 | 1 to 10 | – |
| Cn1cnc2ccc(-c3cccc(OCC(O)CN4CCc5ccccc5C4(C)C)c3)cc21 (centres undefined) | 1 to 10 | – |
| Nc1cccc(C(=O)NCC(O)CN2Cc3ccccc3C2)c1 (centres undefined) | 1 to 10 | – |
| Cn1ccc2ccc(-c3ccnc(NCC(O)CN4CCc5ccccc5C4)c3)cc21 (centres undefined) | < 0.1 | – |
| Cn1cnc2ccc(-c3cccc(OCC(O)CN4Cc5ccccc5C(F)(F)C4)c3)cc21 (centres undefined) | > 10 | – |
| OC(COC1CCN(Cc2ccccc2)CC1)CN1CCc2ccccc2C1 (centres undefined) | 1 to 10 | > 40 |
| COc1cccc2c1CCN(CC(O)COc1cccc(-c3ccc4ncn(C)c4c3)c1)C2 (centres undefined) | 1 to 10 | – |
| C[C@H](Oc1cccc2cccnc12)C(=O)NC[C@H](O)CN1Cc2ccccc2C1 | 1 to 10 | – |
| Cn1cnc2ccc(-c3cccc(OCC(O)CN4CCc5ccccc5C4Cc4ccccc4)c3)cc21 (centres undefined) | > 40 | – |
| Cn1cnc2ccc(-c3cccc(OCC(O)CN4CCc5ccccc5C4COc4ccccc4)c3)cc21 (centres undefined) | > 40 | – |

The next lines start with results.

| IC50 [1] [µM] | Structure (SMILES) | EC50 [2] [µM] |
| --- | --- | --- |
| 0.101 to 1 | OC(COc1cccc(CNC2CCCC2)c1)CN1CCc2ccccc2C1 (centres undefined) | 10 to 40 |
| 1 to 10 | CN(C(=O)c1cncn1C)c1cccc(OCC(O)CN2CCc3ccccc3C2)c1 (centres undefined) | – |
| 1 to 10 | OC(COc1cccc(-c2ccncc2F)c1)CN1CCc2ccccc2C1 (centres undefined) | – |
| 1 to 10 | COc1ncc(-c2cccc(OCC(O)CN3CCc4ccccc4C3)c2)cn1 (centres undefined) | – |
| 1 to 10 | O=C(COCc1cccnc1)NCC(O)CN1CCc2ccccc2C1 (centres undefined) | – |
| 1 to 10 | Cn1cc2cc(-c3cccc(OCC(O)CN4CCc5ccccc5C4)c3)ccc2n1 (centres undefined) | – |
| 1 to 10 | Cn1cncc1C(=O)Nc1cccc(OC[C@@H](O)CN2CCc3ccccc3C2)c1 | – |
| 1 to 10 | OC(COc1cccc(-c2ccccn2)c1)CN1CCc2ccccc2C1 (centres undefined) | – |
| 0.101 to 1 | O=C(Nc1ccccn1)c1cccc(OCC(O)CN2CCc3ccccc3C2)c1 (centres undefined) | – |
| 1 to 10 | OC(COc1cccc(N2CCc3[nH]nc(-c4ccccc4)c3C2)c1)CN1CCc2ccccc2C1 (centres undefined) | – |
| 1 to 10 | CN(C(=O)c1cn(C)cn1)c1cccc(OCC(O)CN2CCc3ccccc3C2)c1 (centres undefined) | – |
| 1 to 10 | CNC(=O)Cn1ccc2cnc(-c3cccc(OCC(O)CN4CCc5ccccc5C4)c3)nc21 (centres undefined) | – |
| 1 to 10 | OC(COc1cccc(-c2cnccn2)c1)CN1CCc2ccccc2C1 (centres undefined) | – |
| 1 to 10 | O=C(Nc1cccc(OCC(O)CN2CCc3ccccc3C2)c1)c1cnco1 (centres undefined) | – |
| 1 to 10 | Cn1cnc2nc(-c3cccc(OCC(O)CN4CCc5ccccc5C4)c3)ncc21 (centres undefined) | – |
| 10 to 40 | OC(COCc1ccccn1)CN1CCc2ccccc2C1 (centres undefined) | – |
| 1 to 10 | O=C(Nc1cccnc1)c1cccc(OCC(O)CN2CCc3ccccc3C2)c1 (centres undefined) | – |
| 1 to 10 | O[C@@H](COc1cccc(CNC2CCCC2)c1)CN1CCc2ccccc2C1 | 10 to 40 |
| 10 to 40 | CN(C(=O)c1cocn1)c1cccc(OCC(O)CN2CCc3ccccc3C2)c1 (centres undefined) | – |
| 0.101 to 1 | O[C@H](COc1cccc(CNC2CCCC2)c1)CN1CCc2ccccc2C1 | 10 to 40 |
| 1 to 10 | OC(COc1cccc(-c2ccncc2)c1)CN1CCc2ccccc2C1 (centres undefined) | – |
| 1 to 10 | OC(COCc1ccc(OCc2ccccc2)cc1)CN1CCc2ccccc2C1 (centres undefined) | > 20 |
| 1 to 10 | O=C(Nc1cc[nH]n1)c1cccc(OCC(O)CN2CCc3ccccc3C2)c1 (centres undefined) | – |
| 10 to 50 | Cn1cnc2ccc(-c3cccc(OC[C@@H](O)CN4Cc5ccccc5C4)c3)cc21 | – |

| IC50 [1] [µM] | Structure (SMILES) | EC50 [2] [µM] |
| --- | --- | --- |
| 1 to 10 | Oc1ccc(-c2cccc(OCC(O)CN3CCc4ccccc4C3)c2)cc1 (centres undefined) | – |
| 1 to 10 | OC(COc1cccc(-c2cccc(Cl)c2)c1)CN1CCc2ccccc2C1 (centres undefined) | – |
| 1 to 10 | Cn1cnc2ccc(-c3cccc(OC[C@H](O)CN4Cc5ccccc5C4)c3)cc21 | – |
| 10 to 40 | CC(C)n1nccc1-c1ccc(OCC(O)CN2CCc3ccccc3C2)cc1 (centres undefined) | > 40 |
| 1 to 10 | O=C(c1cncc(-c2cccc(OCC(O)CN3CCc4ccccc4C3)c2)c1)N1CCCC1 (centres undefined) | – |
| 1 to 10 | OC(COc1cccc(-c2cncnc2)c1)CN1CCc2ccccc2C1 (centres undefined) | – |
| 1 to 10 | OC(COc1ccc(-n2cncn2)cc1)CN1CCc2ccccc2C1 (centres undefined) | > 20 |
| 1 to 10 | OC(COc1cccc(-c2cc(Cl)cc(C(F)(F)F)c2)c1)CN1CCc2ccccc2C1 (centres undefined) | – |
| 0.101 to 1 | CC(=O)N1CCC(n2cnc3ccc(-c4cccc(OCC(O)CN5CCc6ccccc6C5)c4)cc32)CC1 (centres undefined) | – |
| 1 to 10 | Cc1ccc2c(c1)CN(CC(O)COc1cccc(-c3ccc4ncn(C)c4c3)c1)CC2 (centres undefined) | – |
| 1 to 10 | CN(C(=O)c1cccnc1)c1cccc(OCC(O)CN2CCc3ccccc3C2)c1 (centres undefined) | – |
| 1 to 10 | O=C(Nc1cccc(OCC(O)CN2CCc3ccccc3C2)c1)c1cocn1 (centres undefined) | – |
| 1 to 10 | Cn1cnc2ccc(-c3cccc(OCC(O)CN4Cc5ccccc5C4)c3)cc21 (centres undefined) | – |
| 1 to 10 | OC(COc1cccc(-c2ccc(C(F)(F)F)cc2)c1)CN1CCc2ccccc2C1 (centres undefined) | – |
| 1 to 10 | Cn1cncc1C(=O)Nc1cccc(OCC(O)CN2CCc3ccccc3C2)c1 (centres undefined) | – |
| 10 to 40 | OC(COCc1ccncc1)CN1CCc2ccccc2C1 (centres undefined) | – |
| 1 to 10 | Cc1cccc2c1CN(CC(O)COc1cccc(-c3ccc4ncn(C)c4c3)c1)CC2 (centres undefined) | – |
| 1 to 10 | O=C(Nc1cccc(OCC(O)CN2CCc3ccccc3C2)c1)c1ccnnc1 (centres undefined) | – |
| 1 to 10 | CN(C(=O)c1cnco1)c1cccc(OCC(O)CN2CCc3ccccc3C2)c1 (centres undefined) | – |
| 0.101 to 1 | O=C(Cn1ccc2cnc(-c3cccc(OCC(O)CN4CCc5ccccc5C4)c3)nc21)N1CCCC1 (centres undefined) | – |
| 0.101 to 1 | O=C(Cn1ccc2cnc(-c3cccc(OCC(O)CN4CCc5ccccc5C4)c3)nc21)N1CCCCC1 (centres undefined) | – |
| 1 to 10 | OC(COc1cccc(-c2cccc(C(F)(F)F)c2)c1)CN1CCc2ccccc2C1 (centres undefined) | – |
| 10 to 40 | OC(COCc1cccnc1)CN1CCc2ccccc2C1 (centres undefined) | – |
